Among the data in a melting point compilation (Tetko et al.; mined from patent text by program, amines drawn as free bases though some values may be those of a salt) are melting point values, retold here.

Molecules are shown by their SMILES.

The term melting point denotes the temperature of the solid-liquid transition.

The compound `O=C(O)c1ccc(OCCCCCCc2ccc3cc(O)c(O)cc3c2)cc1` yielded a melting point of 160 to 162 °C.

Compound `Cc1[nH]nc(Oc2c(Cl)cc(C(F)(F)F)cc2Cl)c1Cl` yielded a melting point of 156 to 158 °C.

Compound `CCO/C(C)=C(/C#N)C(N)=S` returned a melting point of 201 to 204 °C.

As for `CS(=O)(=O)Nc1ccc(CC(NC(=O)C(c2ccccc2)c2ccccc2)c2ccccc2)cc1` (stereo not drawn), the melting point is 200 to 202 °C.

`CN(C)CCN1C(=O)c2ccc3[nH]c4cc(O)c(O)cc4c3c2C1=O` displayed a melting point of more than 260 °C.

The compound `CC(O)=C(C#N)C(=O)Nc1ccc(S(C)(=O)=O)cc1` showed a melting point of 205 to 206 °C.

`COc1ccc(Oc2nc(Nc3cccc(C(=O)O)c3)nc(Oc3ccccc3)n2)cc1`: the melting point is 233 to 236 °C.

On to `CC(C)=CCn1cc(C)nc1[N+](=O)[O-]`, for which the melting point fell in the range of 53 to 54 °C.

Regarding `O=C(NCCCc1ccncc1)N1CCOCC1`, the melting point was 94 to 98 °C.

Consider `COc1ccc(Nc2ccccc2C=C(Br)Br)cc1OC`, for which the melting point is 83 to 85 °C.

On to `CC(C(=O)O)c1ccc(-c2ccc(F)cc2)c(F)c1` (stereo not drawn), for which the melting point was 118 to 119 °C.

`CCC(=O)Nc1ccc(-c2c[nH]c(=O)cn2)cc1` came in with a melting point of 270 to 272 °C.

With `Cn1cc(Cc2cc3cc(C(F)(F)F)ccc3n2S(=O)(=O)c2cccc(C(C)(C)C)c2)cc1C(=O)O`, the melting point is 160 °C.

For the compound `COc1ccc(C(=O)Nc2ccccc2)cc1NS(=O)(=O)c1ccc(C(=O)O)cc1`, the melting point fell in the range of 212 to 214 °C.

Compound `COc1ccc2c(c1)CCC1=C2CCC(=O)N1` gave a melting point of 203 to 204 °C.

As for `ICCCn1c2ccccc2c2ccccc21`, the melting point lay within 152 to 156 °C.

As for `Cc1ccc(N2C(=O)C(O)=C(C(=O)c3ccc(OC(F)(F)F)cc3)C2c2ccc(Cn3cnnn3)cc2)nn1` (stereo not drawn), the melting point was more than 300 °C.

`COC(=O)C1CCC2C3CCC4CC(=O)CCC4(C)C3C(NCCC(C)C)CC12C` (stereo not drawn) came in with a melting point of 86 to 89 °C.

In turn, `CC(=O)Nc1ccc(Sc2ccc(Cl)cc2)cc1` registered a melting point of 140 to 141 °C.

In the case of `O=C(O)COc1cc2ccsc2c(Cl)c1Cl`, the melting point lay within 166 to 167 °C.

The compound `CC1Cn2c(=O)[nH]c3cccc(c32)CN1Cc1ccccc1` (stereo not drawn) yielded a melting point of 205 °C.

The compound `O=C(c1cccs1)c1cnn2c(-c3cccc(NC(=S)Nc4cccc(-c5ccnc6c(C(=O)c7cccs7)cnn56)c4)c3)ccnc12` had a melting point of 151 to 153 °C.

`CC(C)(C)NC(=O)Nc1ccc2oc3c(c2c1)CCCC3` showed a melting point of 310 to 312 °C.

Turning to `COC(=O)Cc1cscc1C(=O)O`, the melting point lay in the range of 121 to 122 °C.

In the case of `Cn1c(=O)c2c(I)cccc2n2cnc(-c3noc(C4CC4)n3)c12`, the melting point was in the range of 217 to 220 °C.

`CCCCCCCCCCOc1cccc(C(=O)N(CC(=O)O)CC(=O)O)c1` registered a melting point of 87 to 90 °C.

As for `COc1cc(OCCCN(C)Cc2ccc(OC)c(OC)c2)ccc1NC(=O)c1cccc2c(=O)c3cccc(C)c3[nH]c12`, the melting point is 156 to 157 °C.

Take `COc1cc(C(=O)C#CCOC(=O)c2cc(OC)c(OC)c(OC)c2)cc(OC)c1OC`: the melting point lay within 106 to 108 °C.

Compound `CC(=O)Nc1ccc(-c2cnc3c(c2)N(Cc2cc(Cl)ccc2C(F)(F)F)CCN3)cc1` gave a melting point of 244 °C.

For the compound `Cc1nc2ccc(F)cc2c(=O)n1-c1ccccc1Cl`, the melting point was in the range of 137 to 138 °C.

The compound `CCCCOc1cccn2c(=O)cc(C)nc12` had a melting point of 93 to 94 °C.

For the compound `CCOC(=O)Nc1ccc2sc(C)cc(=O)c2c1`, the melting point lay in the range of 219 to 220 °C.

As to `CCOCc1nc2c(N)nc3ccccc3c2n1CC1(OCCS(C)(=O)=O)CCNCC1`, the melting point lay within 212 to 214 °C.

Take `Cn1c(S(=O)(=O)c2ccc(C(=O)OCC(C)(C)C)c(Cl)c2)n[nH]c1=O`: the melting point was 177 °C.

Consider `CN(C)S(=O)(=O)Oc1cccc2c1S(=O)(=O)N=C2C1=C(O)C(C(C)(C)C)N(Cc2ccc(F)cc2)C1=O` (stereo not drawn), for which the melting point fell in the range of 116 to 126 °C.

For the compound `CCOC(=O)c1cc(NCc2ccccc2)c(Nc2ccc(C)cc2C)c(S(N)(=O)=O)c1`, the melting point lay within 167 to 168 °C.

`CCCCOc1ccc(CCCCCCCCC(=O)O)cc1`: the melting point was 45 to 48 °C.

For the compound `COc1cc2c(cc1Nc1ncc(Cl)c(NC3(C(=O)OC(C)C)CCCC3)n1)CCN(CC(=O)N(C)C)CC2`, the melting point was in the range of 65 to 70 °C.

In the case of `CCCCOc1nc(N)c2nc(OC)n(CCNc3cccc(CC(=O)OC)c3)c2n1`, the melting point lay in the range of 119 to 120 °C.

`O=C(NCCCn1cncn1)Nc1cccc(C(F)(F)F)c1` displayed a melting point of 97 to 99 °C.

Consider `CCCNC(=S)NS(=O)(=O)c1cc2c(cc1OC)OCCC2CNC(=O)N1CC(C)=C(CC)C1=O` (stereo not drawn), for which the melting point fell in the range of 96 to 98 °C.

On to `COc1cc(OC)c(C(=O)CCCCCl)c(OC)c1`, for which the melting point is 53 to 55 °C.

`Cc1cc(Nc2ccccc2)nc(N)n1` gave a melting point of 179 to 180 °C.

On to `CC1(C)C=C(c2ccccn2)c2cc(F)c(F)cc2OC1`, for which the melting point is 86 °C.

`COc1ccc2oc(N(C=O)[C@@H](Cc3ccccn3)c3ncc(-c4ccc([N+](=O)[O-])cc4)n3C)cc2c1` gave a melting point of 210 to 211 °C.

Regarding `CC1(C)CC(=O)C(Cl)(Cl)C(Cl)C1Br` (stereo not drawn), the melting point is 117 °C.

Compound `O=C(O)c1cc(-n2c(-c3ccccc3)cc3c2CCCC3)cc(Cl)c1O` registered a melting point of 223 to 225 °C.

On to `CCC(CC)N(O)C(=O)NC(C)(C)c1cccc(C(C)(C)NC(=O)N(O)C(CC)CC)c1`, for which the melting point lay within 170 to 172 °C.

Compound `Oc1ccc(CNc2ncncc2Cl)cc1` displayed a melting point of 190 to 191 °C.

The compound `N[C@@H](Cc1ccc(C(F)(F)F)cc1)[C@H](O)c1ccoc1` (racemic) gave a melting point of 91 to 92 °C.

`O=S(=O)(NCC1CCCO1)c1ccc(Nc2nc(OCC3CCCCC3)c3nc[nH]c3n2)cc1` (stereo not drawn) yielded a melting point of 134 to 136 °C.

Regarding `CC(C)N(Cc1coc(-c2ncn3c2CN(C)C(=O)c2c(Cl)cccc2-3)n1)C(C)C`, the melting point lay in the range of 164 to 166 °C.

On to `O=C(O)Cc1ccc(-c2ccc(F)cc2F)c(F)c1`, for which the melting point was 145 to 147 °C.

`O=C(O)COc1ccc2c(-c3ccccc3F)noc2c1Br` showed a melting point of 180 to 182 °C.

The compound `CN(C)CCC(=O)c1c(-c2ccccc2)[nH]c2ccccc12` registered a melting point of 136 to 138 °C.

Compound `COc1cc2c(c(OC)c1/C=C/c1ccc(C(N)=O)cc1)C(C)(C)CCC2(C)C` gave a melting point of 190 to 194 °C.

Compound `CC(=O)N1C(=CC(C#N)=C2OC(CO)CN2C)C(=O)c2ccccc21` (stereo not drawn) showed a melting point of 218 to 220 °C.

With `CC1CNc2cc(C3=NNC(=O)CC3)ccc2O1` (stereo not drawn), the melting point lay in the range of 294 to 296 °C.

Compound `COc1nc(C2=NC(=O)C(C)(C(C)C)N2)c(C(=O)O)cc1C` (stereo not drawn) displayed a melting point of 151 to 153 °C.

`COc1nc(CNC(=O)NS(=O)(=O)c2ccccc2S(=O)(=O)N(C)C)nc(OC)n1` registered a melting point of 183 to 189 °C.

On to `COC(=O)/C(=C\C=C\c1sc2ccccc2c1C)OC`, for which the melting point is 91 to 92 °C.

`OCc1ccc(Br)nc1` came in with a melting point of 49 to 51 °C.

In turn, `COC(=O)C1=C(C)NN=C(c2ccccc2)C1c1ccccc1` (stereo not drawn) came in with a melting point of 158 °C.

For the compound `CC(=O)c1cnn(C)c1S(N)(=O)=O`, the melting point lay in the range of 153 to 162 °C.

The compound `CC(C)c1cc(C(=O)Nc2ccc(C(=O)O)cn2)sc1C(C)C` showed a melting point of more than 300 °C.

In the case of `O=C1NC(=O)c2c1c(-c1ccccc1Cl)cc1oc3cc(OS(=O)(=O)C(F)(F)F)c(O)cc3c21`, the melting point was 237 to 240 °C.

The compound `CC(C)(C)C(=O)Oc1ccc(C(=O)c2ccc(OC(=O)C(C)(C)C)cc2OC(=O)C(C)(C)C)c(OC(=O)C(C)(C)C)c1` registered a melting point of 154 to 156 °C.

On to `Clc1ccc(N2CCN(Cc3n[nH]c4c(Cl)cccc34)CC2)nc1`, for which the melting point lay within 150 to 152 °C.

In turn, `CCOC(=O)Cn1c2c([nH]c(=O)c1=O)CCC1=C2C=C(n2ccc(N3CCN(c4ccc([N+](=O)[O-])cc4)CC3)c2)CC1` returned a melting point of 229 °C.

Compound `Clc1cccc(-c2n[nH]cc2-c2ccnc(NCc3ccccc3)c2)c1` had a melting point of 179 to 180 °C.

Regarding `CC=CC=C[C@@H]1C[C@H](CC(=O)O)OC2(CCCCC2)O1` (relative stereo), the melting point was in the range of 144 to 146 °C.

Take `CC(=O)Nc1ccc(-c2ccccc2C#N)cc1C`: the melting point lay in the range of 135 to 143 °C.

`Nc1nc(SC2CCC2)c2ncn(C3C=CC(CO)C3)c2n1` (stereo not drawn) registered a melting point of 159 to 160 °C.

The compound `CCCCCOCCCCCCCCCCCCBr` displayed a melting point of 25 °C.

On to `CCSC1CC2(C)C(CCC3C4CCC(C(C)=O)C4(C)CC(=O)C32)CC1O` (stereo not drawn), for which the melting point fell in the range of 170 to 173 °C.

Turning to `OCC1OC(n2cnc3c2N=CNCC3O)C(O)C1O` (stereo not drawn), the melting point fell in the range of 178 to 183 °C.

In the case of `CCC(C)c1ccc(-n2c(-c3cc(C)c(OCCO)c(C)c3)nc3cc(F)ccc3c2=O)cc1` (stereo not drawn), the melting point fell in the range of 53.9 to 54.4 °C.

For the compound `O=C1N(Cc2cnccn2)c2ccccc2C12COc1cc3c(cc12)OCCO3` (stereo not drawn), the melting point fell in the range of 216 to 218 °C.

`COc1cccc(C=C2N=C(c3ccc([N+](=O)[O-])cc3)OC2=O)c1OC`: the melting point lay within 203 to 208 °C.

In turn, `CC(=O)Nc1nc(CCc2ccc(NC(NC(=O)OC(C)(C)C)NC(=O)OC(C)(C)C)cc2)c(Cl)s1` registered a melting point of 220 to 221 °C.

`CC(C)(C)OC(=O)N1CCN(c2nsc3ccccc23)CC1` displayed a melting point of 105 to 107 °C.

In turn, `COCCC1(C(=O)N[C@@H](Cc2ccc(NC(=O)c3cc(C#N)ccc3Cl)cc2)C(=O)OC)CCCC1` displayed a melting point of 172 to 175 °C.

`CCn1c(=O)c2c(nc(/C=C/c3cccc(OC(C)=O)c3)n2C)n(CC)c1=O` returned a melting point of 206 to 207 °C.

`COC(=O)COc1c(F)cc(SCCNS(=O)(=O)c2ccc(Cl)cc2)cc1F` returned a melting point of 79.5 to 80.5 °C.

Regarding `CC(C)N1C(N)=NS(=O)(=O)NC1Oc1ccc([N+](=O)[O-])cc1` (stereo not drawn), the melting point lay within 132 to 136 °C.

Turning to `Cc1ccc2c(c1)c(Cc1nc3cc(C(F)(F)F)ccc3s1)cn2CC(=O)O`, the melting point lay within 248 to 249 °C.

On to `COC(=O)c1cncn1C(c1ccccc1)c1ccccc1`, for which the melting point came to 129 °C.

For the compound `O=C(N[C@H]1CC[C@H](CCN2CCC(c3cccc4c3CCO4)CC2)CC1)c1ccc(-n2cccc2)cc1`, the melting point came out at 228 °C.
